Here are results for five compounds from PMC8871760, “Assessment of Five Pesticides as Endocrine-Disrupting Chemicals: Effects on Estrogen Receptors and Aromatase” (International Journal of Environmental Research and Public …, 2022).

This assay has as its target T1, recombinant form of human aromatase (Homo sapiens, UniProt P11511).
T1 construct: gene CYP19A1; purified recombinant; assayed with equimolar human CPR; with NADPH--cytochrome P450 reductase
T1 sequence (P11511 1-503): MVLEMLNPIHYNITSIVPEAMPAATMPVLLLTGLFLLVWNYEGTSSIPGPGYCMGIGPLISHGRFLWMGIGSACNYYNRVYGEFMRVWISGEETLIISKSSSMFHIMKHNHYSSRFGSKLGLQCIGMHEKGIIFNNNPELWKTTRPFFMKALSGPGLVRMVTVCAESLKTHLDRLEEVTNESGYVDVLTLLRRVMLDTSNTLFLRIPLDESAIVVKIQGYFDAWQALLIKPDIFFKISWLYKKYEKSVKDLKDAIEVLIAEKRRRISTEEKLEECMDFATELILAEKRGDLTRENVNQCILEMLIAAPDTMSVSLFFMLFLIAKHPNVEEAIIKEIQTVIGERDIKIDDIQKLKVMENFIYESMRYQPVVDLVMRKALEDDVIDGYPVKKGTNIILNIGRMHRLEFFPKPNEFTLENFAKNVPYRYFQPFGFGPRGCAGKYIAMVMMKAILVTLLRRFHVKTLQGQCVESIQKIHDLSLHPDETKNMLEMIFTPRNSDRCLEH
T1 sequence (P16435 2-677 partner): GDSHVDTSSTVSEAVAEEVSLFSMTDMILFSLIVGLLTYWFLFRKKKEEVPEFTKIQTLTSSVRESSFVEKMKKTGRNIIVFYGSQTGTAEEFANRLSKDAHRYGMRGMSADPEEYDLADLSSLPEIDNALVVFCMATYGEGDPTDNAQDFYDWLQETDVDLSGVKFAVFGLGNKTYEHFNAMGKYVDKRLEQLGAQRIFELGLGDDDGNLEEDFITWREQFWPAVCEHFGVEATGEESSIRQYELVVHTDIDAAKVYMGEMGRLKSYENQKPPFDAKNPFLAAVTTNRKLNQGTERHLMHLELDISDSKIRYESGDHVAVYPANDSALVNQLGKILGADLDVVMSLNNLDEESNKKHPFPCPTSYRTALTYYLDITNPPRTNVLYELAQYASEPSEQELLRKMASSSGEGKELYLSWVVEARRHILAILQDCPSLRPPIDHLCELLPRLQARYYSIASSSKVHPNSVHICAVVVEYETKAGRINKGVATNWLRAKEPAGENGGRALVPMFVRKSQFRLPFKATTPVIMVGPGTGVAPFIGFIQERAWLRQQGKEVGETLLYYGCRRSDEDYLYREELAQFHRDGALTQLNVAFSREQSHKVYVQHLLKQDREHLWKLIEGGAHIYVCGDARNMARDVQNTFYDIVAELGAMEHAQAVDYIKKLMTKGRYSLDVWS
As to the kind of experiment: estrone ELISA of aromatase reaction. It is filed as biochemical. Particulars: read-out: Relative Activity (% of C+) / 5 × 10^-6 M. The text has this: estrone ELISA of aromatase reaction on recombinant form of human aromatase
(In general: In an ELISA, binding on a coated surface is turned into a signal by an enzyme label.)
As to `C/C(=N\C#N)N(C)Cc1ccc(Cl)nc1` [Acetamiprid], the activity at 5 µM is 87.5 ± 17.6%.

For the compound `CN/C(=N\[N+](=O)[O-])NCc1cnc(Cl)s1` [Clothianidin], the activity at 5 µM turned out to be 97.9 ± 5.2%.

On to `CNC(=O)Oc1cc(C)c(SC)c(C)c1` [Methiocarb], for which the activity at 5 µM was 90.9 ± 5.4%.

As for `CC(C)Oc1cc(-n2nc(C(C)(C)C)oc2=O)c(Cl)cc1Cl` [Oxadiazon], the activity at 5 µM is 101 ± 16.7%.

For `CN1COCN(Cc2cnc(Cl)s2)C1=N[N+](=O)[O-]` [Thiamethoxam], the activity at 5 µM came to 95.6 ± 17.1%.
